# Target: TBK1 (Homo sapiens (Human), UniProt Q9UHD2)
# Experiment: TBK1 low ATP kinase assay (in vitro assay 1)
# Format: biochemical
# Settings: in vitro assay 1, read-out: TBK1 low ATP kinase assay IC50
# Chain of TBK1 (Q9UHD2 whole entry): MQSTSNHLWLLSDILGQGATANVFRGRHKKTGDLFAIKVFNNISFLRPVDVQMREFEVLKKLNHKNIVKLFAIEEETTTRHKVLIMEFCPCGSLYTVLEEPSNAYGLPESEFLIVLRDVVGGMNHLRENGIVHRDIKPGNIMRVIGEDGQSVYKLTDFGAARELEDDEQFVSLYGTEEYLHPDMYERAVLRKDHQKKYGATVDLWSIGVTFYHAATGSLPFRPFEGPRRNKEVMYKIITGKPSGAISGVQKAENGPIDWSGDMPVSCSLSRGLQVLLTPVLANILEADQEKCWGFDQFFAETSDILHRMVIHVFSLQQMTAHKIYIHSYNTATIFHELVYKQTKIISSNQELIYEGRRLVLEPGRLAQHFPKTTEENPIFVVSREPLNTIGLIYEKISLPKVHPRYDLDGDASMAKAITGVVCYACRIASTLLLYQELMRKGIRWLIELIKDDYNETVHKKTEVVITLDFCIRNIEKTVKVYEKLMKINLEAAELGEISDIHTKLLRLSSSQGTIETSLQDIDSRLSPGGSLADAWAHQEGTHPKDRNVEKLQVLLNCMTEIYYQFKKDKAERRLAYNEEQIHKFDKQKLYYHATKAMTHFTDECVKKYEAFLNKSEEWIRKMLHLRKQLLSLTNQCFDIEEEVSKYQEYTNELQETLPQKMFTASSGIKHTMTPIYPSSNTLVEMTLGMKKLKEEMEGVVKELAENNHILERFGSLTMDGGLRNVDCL
row,IC50,Compound
1,73 nM,"Cc1noc(-c2ccc3nc(Nc4cc(C(C)N5CCN(C(=O)C(C)(C)O)CC5)ccn4)[nH]c3c2)n1 (single isomer, unassigned) [Example 16.06.06, 2-hydroxy-2-methyl-1-{4-[(1R or 1S)-1-(2-{[6-(3-methyl-1,2,4-oxadiazol-5-yl)-1H-benzimidazol-2-yl]amino}pyridin-4-yl)ethyl]piperazin-1-yl}propan-1-one]"
2,2.1 nM,"O=C(C1CC1)N1CCN(Cc2ccnc(Nc3nc4ccc(-c5cc(N6CCCCC6)ncn5)cc4[nH]3)c2)CC1 [Example 145.03, cyclopropyl(4-{[2-({6-[6-(piperidin-1-yl)pyrimidin-4-yl]-1H-benzimidazol-2-yl}amino)pyridin-4-yl]methyl}piperazin-1-yl)methanone]"
3,8.3 nM,"COCc1cc(-c2ccc3nc(Nc4cc(CN5CCN(C(=O)CC(F)(F)F)CC5)ccn4)[nH]c3c2)ncn1 [Example 79.01, 3,3,3-trifluoro-1-(4-{[2-({6-[6-(methoxymethyl)pyrimidin-4-yl]-1H-benzimidazol-2-yl}amino)pyridin-4-yl]methyl}piperazin-1-yl)propan-1-one]"
4,13 nM,"CC(C)(C)OC(=O)N1CCN(Cc2ccnc(Nc3nc4ccc(-c5cc(NCCO)ncn5)cc4[nH]3)c2)CC1 [Example 81.01, tert-butyl 4-({2-[(6-{6-[(2-hydroxyethyl)amino]pyrimidin-4-yl}-1H-benzimidazol-2-yl)amino]pyridin-4-yl}methyl)piperazine-1-carboxylate]"
5,0.49 nM,"CC(c1ccnc(Nc2nc3ccc(-c4cc(N5CCCC5)ncn4)cc3[nH]2)c1)N1CCN(C(=O)CC(F)(F)F)CC1 (single isomer, unassigned) [Example 117.03, 3,3,3-trifluoro-1-(4-{(1R or 1S)-1-[2-({6-[6-(pyrrolidin-1-yl)pyrimidin-4-yl]-1H-benzimidazol-2-yl}amino)pyridin-4-yl]ethyl}piperazin-1-yl)propan-1-one]"
6,23.7 nM,CCOc1ncnc(-c2ccc3nc(Nc4cc(CN5CCN(C(=O)C6(C(F)(F)F)CC6)CC5)ccn4)[nH]c3c2)c1OC [Example 167.04]
7,50.6 nM,"COc1cc(-c2ccc3nc(Nc4cc(CN5CCN(C(=O)OC(C)(C)C)CC5)ccn4)[nH]c3c2)ncn1 [Example 34.01.01, tert-butyl 4-[(2-{[6-(6-methoxypyrimidin-4-yl)-1H-benzimidazol-2-yl]amino}pyridin-4-yl)methyl]piperazine-1-carboxylate]"
8,2.13 nM,"CC(C)Oc1cncnc1-c1ccc2nc(Nc3cc(C(C)N4CCN(C(=O)C5CC5)CC4)ccn3)[nH]c2c1 (single isomer, unassigned) [Example 36.03, cyclopropyl(4-{(1R or 1S)-1-[2-({6-[5-(propan-2-yloxy)pyrimidin-4-yl]-1H-benzimidazol-2-yl}amino)pyridin-4-yl]ethyl}piperazin-1-yl)methanone]"
9,43 nM,"COc1c(Cl)ncnc1-c1ccc2nc(Nc3cc(CN4CCN(C(=O)CC(F)(F)F)CC4)ccn3)[nH]c2c1 [Example 60.01, 1-{4-[(2-{[6-(6-chloro-5-methoxypyrimidin-4-yl)-1H-benzimidazol-2-yl]amino}pyridin-4-yl)methyl]piperazin-1-yl}-3,3,3-trifluoropropan-1-one]"
10,18 nM,"CC(O)c1cc(-c2ccc3nc(Nc4cc(CN5CCN(C(=O)CC(F)(F)F)CC5)ccn4)[nH]c3c2)ncn1 (racemic) [Example 97.02, (rac)-3,3,3-trifluoro-1-[4-({2-[(6-{6-[1-hydroxyethyl]pyrimidin-4-yl}-1H-benzimidazol-2-yl)amino]pyridin-4-yl}methyl)piperazin-1-yl]propan-1-one]"
11,4.8 nM,"CC(c1ccnc(Nc2nc3ccc(-c4cnn(CC5CC5(F)F)c4)cc3[nH]2)c1)N1CCN(C(=O)OC(C)(C)C)CC1 (single isomer, unassigned) [Example 55.01.02, tert-butyl 4-[(1R or 1S)-1-(2-{[6-(1-{[(1R or 1S)-2,2-difluorocyclopropyl]methyl}-1H-pyrazol-4-yl)-1H-benzimidazol-2-yl]amino}pyridin-4-yl)ethyl]piperazine-1-carboxylate]"
12,1.5 nM,"COc1c(C)ncnc1-c1ccc2nc(Nc3cc(C(C)N4CCN(C(=O)C5CC5)CC4)ccn3)[nH]c2c1 (single isomer, unassigned) [Example 83.04, cyclopropyl{4-[(1R or 1S)-1-(2-{[6-(5-methoxy-6-methylpyrimidin-4-yl)-1H-benzimidazol-2-yl]amino}pyridin-4-yl)ethyl]piperazin-1-yl}methanone]"
13,16 nM,"COc1c(-c2ccc3nc(Nc4cc(CN5CCN(C(=O)C6CC6)CC5)ccn4)[nH]c3c2)ncnc1N(C)C [Example 107.01.02, cyclopropyl(4-{[2-({6-[6-(dimethylamino)-5-methoxypyrimidin-4-yl]-1H-benzimidazol-2-yl}amino)pyridin-4-yl]methyl}piperazin-1-yl)methanone]"
14,217 nM,"COc1cnc(OCC2CC2)nc1-c1ccc2nc(Nc3cc(CN4CCN(C(=O)OC(C)(C)C)CC4)ccn3)[nH]c2c1 [Example 64.01.01, tert-butyl 4-{[2-({6-[2-(cyclopropylmethoxy)-5-methoxypyrimidin-4-yl]-1H-benzimidazol-2-yl}amino)pyridin-4-yl]methyl}piperazine-1-carboxylate]"
15,22.1 nM,"O=C(C1CC1)N1CCN(Cc2ccnc(Nc3nc4ccc(-c5ccncn5)cc4[nH]3)c2)CC1 [Example 23.01.02, cyclopropyl{4-[(2-{[6-(pyrimidin-4-yl)-1H-benzimidazol-2-yl]amino}pyridin-4-yl)methyl]piperazin-1-yl}methanone]"
16,396 nM,"CC(c1ccnc(Nc2nc3ccc(-c4cc(C(F)(F)F)ncn4)c(F)c3[nH]2)c1)N1CCN(C(=O)OC(C)(C)C)CC1 (single isomer, unassigned) [Example 173.01, tert-butyl 4-{(1R or 1S)-1-[2-({7-fluoro-6-[6-(trifluoromethyl)pyrimidin-4-yl]-1H-benzimidazol-2-yl}amino)pyridin-4-yl]ethyl}piperazine-1-carboxylate]"
17,840 nM,"CSc1ncc(-c2ccc3nc(Nc4cc(CN5CCN(C(=O)C6CC6)CC5)ccn4)[nH]c3c2)cn1 [Example 45.05.03, cyclopropyl(4-{[2-({6-[2-(methylsulfanyl)pyrimidin-5-yl]-1H-benzimidazol-2-yl}amino)pyridin-4-yl]methyl}piperazin-1-yl)methanone]"
18,8.9 nM,"CN(c1cc(-c2ccc3nc(Nc4cc(CN5CCN(C(=O)CC(F)(F)F)CC5)ccn4)[nH]c3c2)ncn1)C1CC1 [Example 157.02, 1-[4-({2-[(6-{6-[cyclopropyl(methyl)amino]pyrimidin-4-yl}-1H-benzimidazol-2-yl)amino]pyridin-4-yl}methyl)piperazin-1-yl]-3,3,3-trifluoropropan-1-one]"
19,405 nM,"Cc1noc(-c2ccc3nc(Nc4cc(CN5C[C@@H](C)N(C(=O)C6CCC6)C[C@@H]5C)ccn4)[nH]c3c2)n1 [Example 16.02.05, cyclobutyl{(2R,5S)-2,5-dimethyl-4-[(2-{[6-(3-methyl-1,2,4-oxadiazol-5-yl)-1H-benzimidazol-2-yl]amino}pyridin-4-yl)methyl]piperazin-1-yl}methanone]"
20,45.8 nM,"Cc1cc(CN2CCN(C(=O)C3CC3)CC2)cc(Nc2nc3ccc(-c4ccnc(C)n4)cc3[nH]2)n1 [Example 24.02.01, cyclopropyl{4-[(2-methyl-6-{[6-(2-methylpyrimidin-4-yl)-1H-benzimidazol-2-yl]amino}pyridin-4-yl)methyl]piperazin-1-yl}methanone]"
21,450 nM,"Cc1noc(-c2ccc3nc(Nc4cc(CN5CCN(c6cncc(Cl)n6)CC5)ccn4)[nH]c3c2)n1 [Example 101.29, N-(4-{[4-(6-chloropyrazin-2-yl)piperazin-1-yl]methyl}pyridin-2-yl)-6-(3-methyl-1,2,4-oxadiazol-5-yl)-1H-benzimidazol-2-amine]"
22,21 nM,"COc1c(-c2ccc3nc(Nc4cc(C(C)N5CCN(C(=O)OC(C)(C)C)CC5)ccn4)[nH]c3c2)ncnc1N(C)C (single isomer, unassigned) [Example 107.02.01, tert-butyl 4-{(1R or 1S)-1-[2-({6-[6-(dimethylamino)-5-methoxypyrimidin-4-yl]-1H-benzimidazol-2-yl}amino)pyridin-4-yl]ethyl}piperazine-1-carboxylate]"
23,3000 nM,"Cc1noc(-c2ccc3nc(Nc4cc(CN5CCN(c6ccccc6)CC5)ccn4)[nH]c3c2)n1 [Example 101.04, 6-(3-methyl-1,2,4-oxadiazol-5-yl)-N-{4-[(4-phenylpiperazin-1-yl)methyl]pyridin-2-yl}-1H-benzimidazol-2-amine]"
24,1130 nM,"Cn1ccc(-c2ccc3nc(Nc4cc(CN5CCN(C(=O)CC(F)(F)F)CC5)ccn4)[nH]c3c2)n1 [Example 40.01, 3,3,3-trifluoro-1-{4-[(2-{[6-(1-methyl-1H-pyrazol-3-yl)-1H-benzimidazol-2-yl]amino}pyridin-4-yl)methyl]piperazin-1-yl}propan-1-one]"
25,9.7 nM,"O=C(C1CC1)N1CCN(Cc2ccnc(Nc3nc4ccc(-c5ccnc(C(F)F)c5)cc4[nH]3)c2)CC1 [Example 139.03, cyclopropyl(4-{[2-({6-[2-(difluoromethyl)pyridin-4-yl]-1H-benzimidazol-2-yl}amino)pyridin-4-yl]methyl}piperazin-1-yl)methanone]"
26,25 nM,"CN(c1cc(-c2ccc3nc(Nc4cc(CN5CCN(C(=O)OC(C)(C)C)CC5)ccn4)[nH]c3c2)ncn1)C1CC1 [Example 157.01, tert-butyl 4-({2-[(6-{6-[cyclopropyl(methyl)amino]pyrimidin-4-yl}-1H-benzimidazol-2-yl)amino]pyridin-4-yl}methyl)piperazine-1-carboxylate]"
27,2.3 nM,"CCNc1cc(-c2ccc3nc(Nc4cc(CN5CCN(C(=O)C6CC6)CC5)ccn4)[nH]c3c2)ncn1 [Example 149.03, cyclopropyl(4-{[2-({6-[6-(ethylamino)pyrimidin-4-yl]-1H-benzimidazol-2-yl}amino)pyridin-4-yl]methyl}piperazin-1-yl)methanone]"

row,Compound,IC50
1,"Cc1noc(-c2ccc3nc(Nc4cc(CN5CCN(C(=O)OC(C)(C)C)CC5)ccn4)[nH]c3c2)n1 [Example 16.01.01, tert-butyl 4-[(2-{[6-(3-methyl-1,2,4-oxadiazol-5-yl)-1H-benzimidazol-2-yl]amino}pyridin-4-yl)methyl]piperazine-1-carboxylate]",230 nM

# — patent US10894784B2, “Heteroarylbenzimidazole compounds” (BAYER PHARMA AKTIENGESELLSCHAFT, priority 2015, dated 2021)
